Data on 18 compounds can be found in patent US12479827B2, “Heteroaromatic carboxamide derivatives as plasma kallikrein inhibitors” (Boehringer Ingelheim International GmbH, priority 2020, dated 2025).

What all share (assay type): biochemical
In one assay the target is T1, human TK1 (Homo sapiens, UniProt P06870).
T1 construct: purchased R&D Systems
Put plainly: Inhibition of TK1 (Ki). The note with it: activated human TK1, substrate H-Pro-Phe-Arg-AMC, 24° C. How it is done: The ability of compounds of formula (I) to inhibit plasma kallikrein (PKK), Factor XIIa (FXIIa), Factor XIa (FXIa), Factor Xa (FXa), Factor IIa (alpha-thrombin; FIIa), plasmin, trypsin, tissue kallikrein 1 (TK1), Factor VIIa (FVIIa), or FVIIa complexed with Tissue Factor, phospholipids and CaCl2 (FVIIa/TF/PL/CaCl2) is determined using the following biochemical assays in assay buffer (100 mM Tris, 150 mM NaCL, adjusted to a pH of 7.8 with HCl, and containing 0.1% (w/v) BSA and 0.05% (v/v) Tween20) in the presence of 1% (v/v) DMSO:
Prior to the assay, human TK1 (R&D Systems) is activated by incubation with human trypsin (Calbiochem) in a 1:10,000 ratio for 15 min at 37° C. For assaying TK1 inhibitory activity, activated TK1 (31.25 nM or 1 U/mL) is incubated at 24° C. with 0.1 mM fluorogenic substrate H-Pro-Phe-Arg-AMC (11295 from Bachem) and various concentrations of the test compound in assay buffer. Measurements are performed in a kinetic interval every 2nd minute for 16 min using a Spectramax M5 (Molecular Devices) with the following settings of the wavelength excitation of 350 nm and wavelength emission of 450 nm.
The pIC50 values are then fitted using a four-parametric fitting procedure using GraphPad Prism (version 6; GraphPad Software, Inc.). Respective Ki values are obtained by correction of the IC50 values for the respective KM value of the used substrate (see Table A for the obtained KM values of the used substrates) using the following formula:
[formula] Where the IC50 is in molar and the KM value in mM.

Assay [1] concerns the target T2, PKK in kaolin activated human platelet poor plasma (Homo sapiens, UniProt P03952).
T2 construct: Platelet poor plasma (PPP) obtained from human wholeblood; from tissue
Put plainly: Inhibition of PKK in kaolin activated human PPP.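 Note: readout is the rate of fluorogenic substrate cleavage in rfu per min.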 The settings on record: 25-750 μg/mL kaolin, global fit, text b200 calls the values IC90. How it is done: Platelet poor plasma (PPP) obtained from human wholeblood, anticoagulated with Na-Citrate, is incubated with various concentrations of the test compound together with either 25, 75, 250, or 750 μg/mL kaolin in assay buffer for 20 min at 37° C. such that for each kaolin dose used a concentration response is obtained for the test compound.

The next assay has as its target T3, Human PKK (Homo sapiens, UniProt P03952).
T3 construct: purchased Enzyme Research Laboratories
Nature of the assay: Inhibition of PKK using an endpoint assay (human PKK). The settings on record: fluorogenic substrate H-Pro-Phe-Arg-AMC, 1 h room temperature, method names human or rat PKK, table does not say which. In short, it runs like this: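 Human PKK inhibition measured in 100 mM Tris, 150 mM NaCl, pH 7.8, 0.1% BSA, 0.05% Tween20, 1% DMSO. Endpoint format: reaction stopped with PPACK II at 1 μM final, fluorescence read at 355 nm excitation/460 nm emission.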

T1 sequence (P06870 25-262): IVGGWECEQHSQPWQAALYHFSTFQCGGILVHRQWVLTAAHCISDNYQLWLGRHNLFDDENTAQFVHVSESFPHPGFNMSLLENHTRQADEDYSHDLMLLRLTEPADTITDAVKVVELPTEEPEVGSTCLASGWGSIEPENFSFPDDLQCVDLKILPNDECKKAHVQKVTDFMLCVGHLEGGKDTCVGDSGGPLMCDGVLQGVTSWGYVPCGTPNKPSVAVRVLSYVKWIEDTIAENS
T3 sequence (P03952 20-390 limits assumed): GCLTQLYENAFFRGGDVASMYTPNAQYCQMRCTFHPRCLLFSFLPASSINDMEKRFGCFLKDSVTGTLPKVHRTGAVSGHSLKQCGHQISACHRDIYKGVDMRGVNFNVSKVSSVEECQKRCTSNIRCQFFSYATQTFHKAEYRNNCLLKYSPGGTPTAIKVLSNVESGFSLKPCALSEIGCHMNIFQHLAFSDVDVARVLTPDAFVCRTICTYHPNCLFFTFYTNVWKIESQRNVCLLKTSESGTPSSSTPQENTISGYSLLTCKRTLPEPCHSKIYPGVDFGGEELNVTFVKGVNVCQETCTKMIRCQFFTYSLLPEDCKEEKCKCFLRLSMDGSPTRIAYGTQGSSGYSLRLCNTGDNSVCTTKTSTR
T3 sequence (P03952 391-638 limits assumed): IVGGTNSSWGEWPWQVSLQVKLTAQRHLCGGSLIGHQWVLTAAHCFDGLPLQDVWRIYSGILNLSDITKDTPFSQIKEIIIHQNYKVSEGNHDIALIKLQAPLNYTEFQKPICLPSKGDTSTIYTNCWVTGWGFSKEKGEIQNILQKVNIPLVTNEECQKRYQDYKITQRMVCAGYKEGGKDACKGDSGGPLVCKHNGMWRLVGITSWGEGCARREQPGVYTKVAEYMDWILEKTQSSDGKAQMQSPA
T2 sequence (P03952 391-638 limits assumed): as above
T2 sequence (P03952 20-390 limits assumed): as the sequence (P03952 20-390 limits assumed) above

In general, Ki refers to the dissociation constant of the complex between target and ligand, obtained from inhibition or displacement. Read a high Ki as a looser hold on the target. By IC50 is commonly meant the midpoint of a concentration-inhibition curve. In turn, `COCc1nn(Cc2ccc(N3CC4CC4C3)nc2C)cc1C(=O)N[C@@H]1CCc2c1ncn2C` (stereo partly drawn) [Example 123, 1-[(6-{3-Azabicyclo[3.1.0]hexan-3-yl}-2-methylpyridin-3-yl)methyl]-3-(methoxymethyl)-N-[(4R)-1-methyl-1H,4H,5H,6H-cyclopenta-[d]imidazol-4-yl]-1H-pyrazole-4-carboxamide] showed a Ki at human TK1 above 10 µM. For the same compound, the IC50 in assay [1] amounted to 1.32 µM; on Human PKK, 0.0009 µM.
In the case of `Cn1cnc2c1CC[C@H]2NC(=O)c1cn(Cc2ccc(N3CC4(CC4)C3)nc2Br)cn1` [Example 16, 1-[(6-{5-Azaspiro[2.3]hexan-5-yl}-2-bromopyridin-3-yl)methyl]-N-[(4R)-1-methyl-1H,4H,5H,6H-cyclopenta[d]imidazol-4-yl]-1H-imidazole-4-carboxamide], at human TK1, the inhibition constant Ki is above 10 µM. The values for the IC50 (in assay [1]; against Human PKK) were 0.28 µM and 0.0006 µM, respectively.
For `Cn1cnc2c1CC[C@H]2NC(=O)c1cn(Cc2ccc(N3CC4CC4C3)nc2F)cn1` (stereo partly drawn) [Example 108, 1-[(6-{3-Azabicyclo[3.1.0]hexan-3-yl}-2-fluoropyridin-3-yl)methyl]-N-[(4R)-1-methyl-1H,4H,5H,6H-cyclopenta[d]imidazol-4-yl]-1H-imidazole-4-carboxamide] the same measures were above 10 µM, 0.465 µM and 0.0017 µM.
Turning to `Cn1cnc2c1CC[C@H]2NC(=O)c1cnn(Cc2ccc(N3CC4CC4C3)nc2C2CC2)c1` (stereo partly drawn) [Example 117, 1-[(6-{3-Azabicyclo[3.1.0]hexan-3-yl}-2-cyclopropylpyridin-3-yl)methyl]-N-[(4R)-1-methyl-1H,4H,5H,6H-cyclopenta[d]imidazol-4-yl]-1H-pyrazole-4-carboxamide], the Ki at human TK1 was above 10 µM. In addition, the IC50 in assay [1] stood at 1.54 µM; at Human PKK it was 0.0022 µM.
For `Cn1cnc2c1CC[C@H]2NC(=O)c1cnn(Cc2ccc(N3CC4CC4C3)c(C#N)c2F)c1` (stereo partly drawn) [Example 198, 1-[(4-{3-azabicyclo[3.1.0]hexan-3-yl}-3-cyano-2-fluorophenyl)methyl]-N-[(4R)-1-methyl-1H,4H,5H,6H-cyclopenta[d]imidazol-4-yl]-1H-pyrazole-4-carboxamide] the same measures were above 10 µM, 0.398 µM and 0.0008 µM.
In turn, `Cn1cnc2c1CC[C@H]2NC(=O)c1cn(Cc2ccc(N3CC4(CC4)C3)nc2C(F)F)cn1` [Example 47, 1-[(6-{5-Azaspiro[2.3]hexan-5-yl}-2-(difluoromethyl)-pyridin-3-yl)methyl]-N-[(4R)-1-methyl-1H,4H,5H,6H-cyclopenta[d]imidazol-4-yl]-1H-imidazole-4-carboxamide] gave a Ki at human TK1 above 10 µM. For the same compound, the IC50 in assay [1] turned out to be 0.173 µM; against Human PKK, 0.0008 µM.
`Cc1nc(N2CC3CC3C2)ccc1Cc1ccc(C(=O)N[C@@H]2CCc3c2ncn3C)o1` (stereo partly drawn) [Example 181, 5-[(6-{3-Azabicyclo[3.1.0]hexan-3-yl}-2-methylpyridin-3-yl)methyl]-N-[(4R)-1-methyl-1H,4H,5H,6H-cyclopenta[d]imidazol-4-yl]furan-2-carboxamide] gave an inhibition constant Ki at human TK1 above 10 µM. The IC50 in assay [1] amounted to 22.3 µM; against Human PKK, 0.0109 µM.
The corresponding values for `Cc1nc(N2CC3CC3C2)ccc1Cn1cc(C(=O)N[C@@H]2CCc3c2ncn3C)c(C(F)(F)F)n1` (stereo partly drawn) [Example 119, 1-[(6-{3-Azabicyclo[3.1.0]hexan-3-yl}-2-methylpyridin-3-yl)methyl]-N-[(4R)-1-methyl-1H,4H,5H,6H-cyclopenta[d]imidazol-4-yl]-3-(trifluoromethyl)-1H-pyrazole-4-carboxamide] are 1.06 µM, 1.46 µM and 0.0012 µM.
With `CCCc1nc(N2CC3CC3C2)ccc1Cn1cnc(C(=O)N[C@@H]2CCc3c2ncn3C)c1` (stereo partly drawn) [Example 110, 1-[(6-{3-Azabicyclo[3.1.0]hexan-3-yl}-2-propylpyridin-3-yl)methyl]-N-[(4R)-1-methyl-1H,4H,5H,6H-cyclopenta[d]imidazol-4-yl]-1H-imidazole-4-carboxamide], the Ki on human TK1 was above 10 µM. The IC50 worked out at 0.784 µM in assay [1] and 0.0009 µM at Human PKK.
Regarding `Cc1nc(N2CC3CC3C2)c(C#N)cc1Cn1cnc(C(=O)N[C@@H]2CCc3c2ncn3C)c1` (stereo partly drawn) [Example 124, 1-[(6-{3-Azabicyclo[3.1.0]hexan-3-yl}-5-cyano-2-methylpyridin-3-yl)methyl]-N-[(4R)-1-methyl-1H,4H,5H,6H-cyclopenta[d]imidazol-4-yl]-1H-imidazole-4-carboxamide], the Ki at human TK1 is above 10 µM. Besides, the IC50 came out at 0.823 µM in assay [1] and 0.0024 µM against Human PKK.
The corresponding values for `Cc1nc(N2CC3CC3C2)ccc1Cn1cc(C(=O)N[C@@H]2CCc3c2ncn3C)cn1` (stereo partly drawn) [Example 133, 1-[(6-{3-Azabicyclo[3.1.0]hexan-3-yl}-2-methylpyridin-3-yl)methyl]-N-[(4R)-1-methyl-1H,4H,5H,6H-cyclopenta[d]imidazol-4-yl]-1H-pyrazole-4-carboxamide] are above 10 µM, 0.56 µM and 0.0016 µM.
Turning to `CCc1nc(N2CC3(CC3)C2)ccc1Cn1cc(C(=O)N[C@@H]2CCc3c2ncn3C)cn1` [Example 51, 1-[(6-{5-Azaspiro[2.3]hexan-5-yl}-2-ethylpyridin-3-yl)methyl]-N-[(4R)-1-methyl-1H,4H,5H,6H-cyclopenta[d]imidazol-4-yl]-1H-pyrazole-4-carboxamide], the inhibitory constant (Ki) at human TK1 was above 10 µM. The IC50 turned out to be 0.213 µM in assay [1] and 0.001 µM against Human PKK.
The corresponding values for `Cc1nc(N2CC3CC3C2)ncc1Cn1cnc(C(=O)N[C@@H]2CCc3c2ncn3C)c1` (stereo partly drawn) [Example 171, 1-[(2-{3-Azabicyclo[3.1.0]hexan-3-yl}-4-methylpyrimidin-5-yl)methyl]-N-[(4R)-1-methyl-1H,4H,5H,6H-cyclopenta[d]imidazol-4-yl]-1H-imidazole-4-carboxamide] are above 10 µM, 0.268 µM and 0.0026 µM.
Consider `Cc1nc(N2CC3C(C2)C3(F)F)ncc1Cn1cc(C(=O)N[C@@H]2CCc3c2ncn3C)nn1` (stereo partly drawn) [Example 178, 1-[(2-{6,6-Difluoro-3-azabicyclo[3.1.0]hexan-3-yl}-4-methylpyrimidin-5-yl)methyl]-N-[(4R)-1-methyl-1H,4H,5H,6H-cyclopenta[d]imidazol-4-yl]-1H-1,2,3-triazole-4-carboxamide], for which the Ki at human TK1 is above 10 µM. Also, the IC50 was determined as 0.844 µM in assay [1] and 0.005 µM on Human PKK.
For `CCc1nc(N2CC3CC3C2)ccc1Cn1cc(C(=O)N[C@@H]2CCc3c2ncn3C)cn1` (stereo partly drawn) [Example 22, 1-[(6-{3-Azabicyclo[3.1.0]hexan-3-yl}-2-ethylpyridin-3-yl)methyl]-N-[(4R)-1-methyl-1H,4H,5H,6H-cyclopenta[d]imidazol-4-yl]-1H-pyrazole-4-carboxamide] the same measures were above 10 µM, 0.249 µM and 0.0005 µM.
`Cc1nc(N2CC3C(C2)C3(F)F)ccc1Cn1cnc(C(=O)N[C@@H]2CCc3c2ncn3C)c1` (stereo partly drawn) [Example 24, 1-[(6-{6,6-Difluoro-3-azabicyclo[3.1.0]hexan-3-yl}-2-methylpyridin-3-yl)methyl]-N-[(4R)-1-methyl-1H,4H,5H,6H-cyclopenta[d]imidazol-4-yl]-1H-imidazole-4-carboxamide] came in with an inhibition constant Ki on human TK1 above 10 µM. Also, the IC50 in assay [1] was 0.181 µM; against Human PKK, 0.001 µM.
The corresponding values for `Cc1nc(N2CC3CC3C2)ncc1Cn1cc(C(=O)N[C@@H]2CCc3c2ncn3C)cn1` (stereo partly drawn) [Example 177, 1-[(2-{3-Azabicyclo[3.1.0]hexan-3-yl}-4-methylpyrimidin-5-yl)methyl]-N-[(4R)-1-methyl-1H,4H,5H,6H-cyclopenta[d]imidazol-4-yl]-1H-pyrazole-4-carboxamide] are above 10 µM, 1.18 µM and 0.0055 µM.
At human TK1, `Cn1cnc2c1CC[C@H]2NC(=O)c1cnn(Cc2ccc(N3CC4C(C3)C4(F)F)nc2)c1` (stereo partly drawn) [Example 80, 1-[(6-{6,6-Difluoro-3-azabicyclo[3.1.0]hexan-3-yl}pyridin-3-yl)methyl]-N-[(4R)-1-methyl-1H,4H,5H,6H-cyclopenta[d]imidazol-4-yl]-1H-pyrazole-4-carboxamide] registered a Ki above 10 µM. Moreover, the results for the IC50 (in assay [1]; on Human PKK) were 0.495 µM and 0.0047 µM, respectively.
